Patent US20250145566A1, “PHENETHYLAMINE DERIVATIVES, COMPOSITIONS, AND METHODS OF USE” (Cybin IRL Limited, priority 2022, published 2025)
“Also recorded” adds a separate entry of the source. Where two headings read alike, the source gives them in different places.

Columns and labels:
MAO-B = target: T1, MAO-B (Homo sapiens, UniProt P27338); assay: human MAO-B in vitro metabolism; type: in vitro ADME; details: human MAO-B enzyme (Corning), test compound 1 μM, read-out: MAO-B t1/2
T1 construct: purchased Corning 456284
T1 sequence (P27338 1-520): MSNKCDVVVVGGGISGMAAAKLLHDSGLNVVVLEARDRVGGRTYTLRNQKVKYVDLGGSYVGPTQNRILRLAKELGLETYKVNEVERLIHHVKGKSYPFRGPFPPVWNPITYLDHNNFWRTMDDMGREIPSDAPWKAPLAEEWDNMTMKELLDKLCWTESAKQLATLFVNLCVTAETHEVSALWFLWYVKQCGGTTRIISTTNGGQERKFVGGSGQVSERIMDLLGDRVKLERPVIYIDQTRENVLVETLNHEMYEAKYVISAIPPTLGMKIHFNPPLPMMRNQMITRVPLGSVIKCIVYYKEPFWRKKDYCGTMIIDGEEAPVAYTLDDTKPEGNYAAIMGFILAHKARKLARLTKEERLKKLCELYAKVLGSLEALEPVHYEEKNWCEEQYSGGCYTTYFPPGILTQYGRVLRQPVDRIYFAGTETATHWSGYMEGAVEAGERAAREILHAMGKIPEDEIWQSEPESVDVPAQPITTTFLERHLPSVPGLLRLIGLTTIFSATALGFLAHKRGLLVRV
Description: (§1) In a different series of reactions using human MAO-A and MAO-B, a 10 mM stock solution of the test compound was prepared in DMSO. From this stock solution, an intermediate stock solution of 1 mM was prepared by diluting the compound in DMSO and from this intermediate stock solution, a working solution of 0.30 mM was prepared by diluting the compound in ACN:Water (50:50) as cocktail of 2 compounds (30 μL each compound in 40 μL diluent for 100 μL). Following this, a master mix of 0.1 M potassium phosphate buffer and test compound mixture i.e., the non-deuterated and the deuterated analog, were prepared to achieve final drug concentration of 1 μM (0.2% DMSO) for the required number of reactions. The aforementioned master mix was pre-incubated at 37° C. for 5 min. To this master mix, MAO-A (final protein conc. 0.1 mg/mL; Corning Cat #456283; Lot #1173003) or MAO-B (final protein conc. 0.1 mg/mL; Corning Cat #456284; Lot #0318001) was added to initiate the reaction. The samples were then incubated at 37° C. for the desired time points. At each time point (0, 5, 15, 30, 45, 60), 40 μL of the samples were withdrawn and reactions were stopped using 200 μL chilled ACN containing 0.1% formic acid and internal standard Carbamazepine (10 ng/mL). The samples were centrifuged, and the supernatant was analyzed by LC-MS/MS. The percent compound remaining at each time point was calculated with respect to that of the 0 min sample. The data were then analyzed to calculate half-life and intrinsic clearance (CLint). Blank samples were prepared using DMSO (without the test compound).

MAO-A = target: T2, MAO-A (Homo sapiens, UniProt P21397); assay: Recombinant human MAO-A in vitro metabolism; type: in vitro ADME; details: for half-life at 1 µM: human, recombinant human MAO-A
T2 construct: purchased XenoTech (first series); Corning (second series) Corning 456283
T2 sequence (P21397 1-527): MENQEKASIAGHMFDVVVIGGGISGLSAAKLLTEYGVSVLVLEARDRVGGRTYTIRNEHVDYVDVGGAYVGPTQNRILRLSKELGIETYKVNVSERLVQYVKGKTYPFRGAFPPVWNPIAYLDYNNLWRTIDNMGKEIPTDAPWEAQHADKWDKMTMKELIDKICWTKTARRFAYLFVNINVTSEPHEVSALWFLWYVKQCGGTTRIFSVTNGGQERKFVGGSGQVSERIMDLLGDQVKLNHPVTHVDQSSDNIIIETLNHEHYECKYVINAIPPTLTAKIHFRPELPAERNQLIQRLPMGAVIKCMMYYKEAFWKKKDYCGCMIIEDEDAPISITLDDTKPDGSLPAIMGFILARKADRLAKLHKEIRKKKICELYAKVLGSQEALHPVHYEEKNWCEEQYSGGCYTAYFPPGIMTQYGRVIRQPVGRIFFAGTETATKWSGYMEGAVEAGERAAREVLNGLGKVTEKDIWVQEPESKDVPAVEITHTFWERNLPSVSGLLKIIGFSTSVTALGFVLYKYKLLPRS
Description: Recombinant human MAO-A. hrMAO-A and MAO control were purchased from XenoTech. The reaction mixture was prepared as described in Table 11. The test compound was added into the reaction mixture at a final concentration of 1 μM. The positive control kynuramine (25 μM) was run simultaneously with the test compound in a separate reaction. The reaction mixture (without test compounds or kynuramine) was equilibrated in a shaking water bath at 37° C. for 5 minutes. The reaction was initiated by the addition of the test compound or kynuramine, and the mixture was incubated in a shaking water bath at 37° C. Aliquots (150 μL) of the test compound reaction mixture were withdrawn at 0, 5, 10, 20, 30, 60, and for some assays at 120 minutes. Aliquots (150 μL) of the positive control reaction mixture were withdrawn at 0 and 30 minutes. Test compound and kynuramine samples were immediately combined with 150 μL of ice-cold 100% acetonitrile containing 0.1% formic acid and internal standard (0.2 μM metoprolol) to terminate the reaction. The samples were then mixed and centrifuged to precipitate proteins. All samples were assayed by LC-MS/MS. The peak area response ratio (PARR) of analyte to internal standard at each time point was compared to the PARR at time 0 to determine the percent remaining at each time point. Half-lives were calculated using GraphPad software, fitting to a single-phase exponential decay equation.
as §1

[1] = Rat liver microsomes (RLM) in vitro metabolism; type: in vitro ADME; details: Sprague-Dawley
Description: (§2) Rat Liver Microsomes (RLM). Male Sprague-Dawley rat liver microsomes were purchased from XenoTech. The reaction mixture, minus NADPH, was prepared as described in Table 10. The test compound was added into the reaction mixture at a final concentration of 1 μM. The control compound, testosterone, was run simultaneously with the test compound in a separate reaction. The reaction mixture (without cofactor) was equilibrated in a shaking water bath at 37° C. for 5 minutes. The reaction was initiated by the addition of the cofactor, and the mixture was incubated in a shaking water bath at 37° C. Aliquots (150 μL) were withdrawn at 0, 5, 10, 20, 30, 60, and for some assays at 120 minutes. Test compound and testosterone samples were immediately combined with 150 μL of ice-cold acetonitrile (ACN) containing 0.1% formic acid and internal standard to terminate the reaction. The samples were then mixed and centrifuged to precipitate proteins. All samples were assayed by LC-MS/MS using electrospray ionization. The peak area response ratio (PARR) of analyte to internal standard at each time point was compared to the PARR at time 0 to determine the percent remaining at each time point. Half-lives were calculated using GraphPad software, fitting to a single-phase exponential decay equation.
(§3) In a different series of reactions using RLM, a 10 mM stock solution of the test compound was prepared in DMSO. From this stock solution, an intermediate stock solution of 1 mM was prepared by diluting the compound in DMSO and from this intermediate stock solution, a working solution of 0.30 mM was prepared by diluting the compound in ACN:Water (50:50) as a cocktail of two compounds (i.e., 30 μL the non-deuterated and the deuterated compound in 40 μL diluent in 100 μL total volume). Following this, a master mix of rat liver microsomes (final concentration 0.5 mg/ml, Xenotech Cat #R1000; Lot #1610290) and 0.1 M potassium phosphate buffer was prepared and pre-incubated for 5 min at 37° C. The test compound mixture was then added to achieve a final test article concentration of 1 μM (for each analog if co-dosed; 0.2% DMSO); verapamil was used as a positive control. Subsequently, 10 mM NADPH prepared in 0.1 M potassium phosphate buffer was added (final concentration 1 mM) to initiate the reaction and samples were incubated at 37° C. for the desired time points (0, 5, 15, 30, 45, 60 min). At each time point, 40 μL of the samples were withdrawn and reactions were stopped using 200 μL chilled ACN containing 0.1% formic acid and internal standard carbamazepine (10 ng/mL). The samples were centrifuged, and the supernatant was analyzed by LC-MS/MS. The percent compound remaining at each time point was calculated with respect to that of the 0 min sample. The data were then analyzed to calculate half-life. Blank samples were prepared using DMSO (without the test compound).

Rat Liver Microsomes = assay: Rat liver microsomes (RLM) in vitro metabolism; type: in vitro ADME; details: for disappearance in RLM, NADPH dependence: result in words
Description: as §2, §3

5-HT2A (h) = target: T3, 5-HT2A (h) (Homo sapiens, UniProt P28223); details: literature, single enantiomers, cited from earlier work; for EC50: read-out: Function 5-HT2A EC50
T3 construct: expressed in transfected cells; host or cells: HEK-293 cells

5-HT2A receptor = target: T4, 5-HT2A receptor (Homo sapiens, UniProt P28223); assay: 5-HT2A radioligand ([3H]LSD) competition binding; details: for affinity at 5-HT2A receptors, comparison in words: [3H]LSD competition binding
T4 construct: host or cells: HEK293 (ATCC CRL-1573), transient, membranes

[2] = 1 μM test compound, read-out: half-life, MAO-A metabolism
[3] = human recombinant MAO-A, test compound 1 μM, read-out: MAO-A t1/2
[4] = pH 7.4, rat liver microsomes, test compound 1 μM, * = apparent NADPH independent reaction, read-out: RLM t1/2
[5] = rat liver microsomes (Table 17), read-out: RLM t1/2
[6] = rat liver microsomes (Table 18), read-out: RLM t1/2

T4 sequence (P28223 whole entry): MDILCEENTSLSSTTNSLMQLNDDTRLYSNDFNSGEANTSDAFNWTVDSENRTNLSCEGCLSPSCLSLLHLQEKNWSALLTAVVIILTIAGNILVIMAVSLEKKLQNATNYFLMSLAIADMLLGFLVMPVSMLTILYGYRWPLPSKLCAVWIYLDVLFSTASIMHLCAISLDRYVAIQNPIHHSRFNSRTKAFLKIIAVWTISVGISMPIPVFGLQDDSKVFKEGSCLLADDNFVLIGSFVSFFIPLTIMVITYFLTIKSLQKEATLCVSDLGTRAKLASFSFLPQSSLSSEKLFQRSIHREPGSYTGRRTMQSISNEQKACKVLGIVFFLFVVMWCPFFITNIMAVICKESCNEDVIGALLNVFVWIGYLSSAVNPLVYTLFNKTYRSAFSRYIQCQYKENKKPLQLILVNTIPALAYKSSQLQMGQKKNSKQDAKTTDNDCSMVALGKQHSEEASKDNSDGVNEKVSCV
T3 sequence (P28223 whole entry): as above

[2H]C1([2H])Oc2ccc(CCN)cc2O1 [II-11, 2-(benzo[d][1,3]dioxol-5-yl-2,2-d2)ethan-1-amine]
half-life at 1 µM (MAO-B): < 5 min
half-life at 1 µM (MAO-A; [2]): ≤ 8 min
half-life at 1 µM (MAO-A; [3]): 7.97 min
half-life at 1 µM [1, 4]: < 5 min
disappearance in RLM, NADPH dependence (Rat Liver Microsomes): NADPH-independent

C[C@H](N)Cc1ccc2c(c1)OCO2 [S-MDA]
Function 5-HT2A EMAX (5-HT2A (h)): EMAX = 89%
EC50 (5-HT2A (h)): 18200 nM

COc1cc(SC)c(OC)cc1CCN [Reference Compound 3, 2-(2,5-dimethoxy-4-(methylthio)phenyl)ethan-1-amine, reference compound]
half-life at 1 µM [1, 5]: 6.09 min

COc1cc(SC)c(OC)cc1C[C@@H](C)N [Reference Compound 2 (R)]
half-life at 1 µM (MAO-A; Table 18, read-out: MAO-A t1/2): > 120 min
Ki (5-HT2A receptor): 7 nM
half-life at 1 µM [1, 5]: 16 min

COc1cc(SC)c(OC)cc1C[C@H](C)N [Reference Compound 2 (S)]
half-life at 1 µM (MAO-A; Table 18, read-out: MAO-A t1/2): > 120 min
Ki (5-HT2A receptor): 18 nM
half-life at 1 µM [1, 5]: 6.34 min

NCCc1ccc2c(c1)OCO2 [Reference Compound 5, 3,4-Methylenedioxyphenethylamine, reference compound]
half-life at 1 µM (MAO-B): 7.91 min
half-life at 1 µM (MAO-A; [2]): ≤ 8 min
half-life at 1 µM (MAO-A; [3]): 8.34 min
half-life at 1 µM [1, 4]: < 5 min
disappearance in RLM, NADPH dependence (Rat Liver Microsomes): NADPH-independent

[2H]C1([2H])Oc2cc(CC(C)N)ccc2S1 (stereo not shown) [II-17, 1-(benzo[d][1,3]oxathiol-6-yl-2,2-d2)propan-2-amine]
half-life at 1 µM (MAO-B): 892 min
half-life at 1 µM (MAO-A; [3]): > 120 min
stability in the presence of MAO-A (MAO-A; result in words): stable
half-life at 1 µM [1, 4]: 12.6 min

COc1cc(C(F)(F)F)c(OC)cc1CCN [Reference Compound 4, 2-(2,5-dimethoxy-4-(trifluoromethyl)phenyl)ethan-1-amine, reference compound]
Ki (5-HT2A receptor): 3.4 nM
half-life at 1 µM [1, 5]: 16.6 min

COc1cc(CCN)cc(OC)c1SC(F)(F)F [III-5, 2-(3,5-dimethoxy-4-((trifluoromethyl)thio)phenyl)ethan-1-amine]
Ki (5-HT2A receptor): 1.6 nM
affinity at 5-HT2A receptors, comparison in words (5-HT2A receptor): superior affinity at 5-HT2A receptors compared to Reference Compound 1; also recorded: affinity equal to or better than classic 2,4,5-substituted 5-HT2A agonists, such as Reference Compounds 2-4
Ki (5-HT2A receptor; read-out: 5HT2A Ki at the low-affinity inactive state, [3H]LSD, two-site fit): 676 nM
half-life at 1 µM ([1]; rat, rat liver microsomes, 1 μM test compound, read-out: half-life in the presence of rat liver microsome): > 120 min
RLM t1/2 (Rat Liver Microsomes; rat liver microsomes (Table 17)): >120 min

COc1cc(SC(F)(F)F)c(OC)cc1CC(C)N (racemic) [IV-1 (racemic)]
Ki (5-HT2A receptor; agonist radioligand: [3H]LSD (Table 18), read-out: 5HT2A Ki): 7 nM
half-life at 1 µM [1, 6]: 40.7 min

[2H]C1([2H])Oc2cc(CCN)ccc2S1 [II-15, 2-(benzo[d][1,3]oxathiol-6-yl-2,2-d2)ethan-1-amine]
half-life at 1 µM (MAO-B): < 5 min
half-life at 1 µM (MAO-A; [2]): ≤ 8 min
half-life at 1 µM (MAO-A; [3]): 4.42 min
half-life at 1 µM [1, 4]: < 5 min

C[C@@H](N)Cc1ccc2c(c1)OCO2 [R-MDA]
Function 5-HT2A EMAX (5-HT2A (h)): EMAX = 95%
EC50 (5-HT2A (h)): 5600 nM

[2H]C([2H])([2H])Oc1cc(SC)c(OC([2H])([2H])[2H])cc1C[C@@H](C)N [IV-9 (R)]
half-life at 1 µM (MAO-A; Table 18, read-out: MAO-A t1/2): > 120 min
Ki (5-HT2A receptor): 26 nM
half-life at 1 µM [1, 6]: 16.6 min

COc1cc(SC(F)(F)F)c(OC)cc1CC(C)N (racemic) [IV-1, 1-(2,5-dimethoxy-4-((trifluoromethyl)thio)phenyl)propan-2-amine]
affinity at 5-HT2A receptors, comparison in words (5-HT2A receptor): affinity at 5-HT2A receptors equal or superior to both enantiomers of Reference Compound 2
stability / half-life in RLMs, comparison in words (Rat Liver Microsomes; compared with Reference Compound 2): greater stability in RLMs than Reference Compound 2

[2H]C([2H])([2H])Oc1cc(SC)c(OC([2H])([2H])[2H])cc1C[C@H](C)N [IV-9 (S)]
half-life at 1 µM (MAO-A; Table 18, read-out: MAO-A t1/2): > 120 min
Ki (5-HT2A receptor): 56 nM
half-life at 1 µM [1, 6]: 6.3 min
